Reference: ChEMBL document CHEMBL1909046, “DrugMatrix in vitro pharmacology data”
pIC50, pKi: −log10 of the molar value.

How the values were obtained:
B2 bradykinin receptor = target: T1, B2 bradykinin receptor (Homo sapiens, UniProt P30411); assay type: cell membranes, Membrane; conditions: chem-1; also: in other assays of this panel Not Active means under 50% inhibition at 10 µM
T1 sequence (P30411 whole entry): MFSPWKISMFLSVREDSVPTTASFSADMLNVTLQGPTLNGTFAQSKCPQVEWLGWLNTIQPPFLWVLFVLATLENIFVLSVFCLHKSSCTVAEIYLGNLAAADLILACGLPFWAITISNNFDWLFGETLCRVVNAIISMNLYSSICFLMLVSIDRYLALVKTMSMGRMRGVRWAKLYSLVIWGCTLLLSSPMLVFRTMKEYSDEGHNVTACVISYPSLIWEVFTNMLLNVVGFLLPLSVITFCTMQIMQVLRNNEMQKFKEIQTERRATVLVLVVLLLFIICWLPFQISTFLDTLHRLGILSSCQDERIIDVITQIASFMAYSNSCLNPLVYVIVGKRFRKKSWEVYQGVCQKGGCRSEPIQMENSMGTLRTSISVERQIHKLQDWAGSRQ

Calcitonin receptor = target: T2, Calcitonin receptor (Homo sapiens, UniProt P30988); assay type: cell membranes, Membrane; conditions: t47d; also: in other assays of this panel Not Active means under 50% inhibition at 10 µM
T2 sequence (P30988 whole entry): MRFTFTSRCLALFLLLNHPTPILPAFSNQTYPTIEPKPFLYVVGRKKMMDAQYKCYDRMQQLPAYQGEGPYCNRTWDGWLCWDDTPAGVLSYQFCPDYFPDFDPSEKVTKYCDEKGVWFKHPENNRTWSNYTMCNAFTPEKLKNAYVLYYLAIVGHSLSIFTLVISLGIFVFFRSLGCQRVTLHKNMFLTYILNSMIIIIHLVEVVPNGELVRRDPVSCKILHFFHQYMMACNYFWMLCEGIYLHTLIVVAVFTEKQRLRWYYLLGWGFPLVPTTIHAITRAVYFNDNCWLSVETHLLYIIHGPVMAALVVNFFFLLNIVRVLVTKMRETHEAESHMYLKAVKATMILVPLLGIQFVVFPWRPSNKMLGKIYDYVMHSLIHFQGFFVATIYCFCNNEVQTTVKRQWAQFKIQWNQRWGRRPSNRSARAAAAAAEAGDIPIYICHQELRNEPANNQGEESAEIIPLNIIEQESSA

[1] = target: T3, C-X-C chemokine receptor type 2 (Homo sapiens, UniProt P25025); assay type: cell membranes, Membrane; conditions: cho-k1; also: in other assays of this panel Not Active means under 50% inhibition at 10 µM
T3 sequence (P25025 whole entry): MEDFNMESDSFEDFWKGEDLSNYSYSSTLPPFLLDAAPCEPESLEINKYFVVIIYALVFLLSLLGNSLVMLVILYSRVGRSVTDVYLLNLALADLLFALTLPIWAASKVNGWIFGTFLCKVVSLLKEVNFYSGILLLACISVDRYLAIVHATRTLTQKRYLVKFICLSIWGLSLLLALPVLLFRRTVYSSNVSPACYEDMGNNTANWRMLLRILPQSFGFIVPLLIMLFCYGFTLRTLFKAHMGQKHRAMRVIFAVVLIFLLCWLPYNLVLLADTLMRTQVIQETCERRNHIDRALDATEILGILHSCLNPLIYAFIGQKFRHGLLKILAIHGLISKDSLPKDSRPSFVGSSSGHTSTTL

Leukotriene C4 synthase = target: T4, Leukotriene C4 synthase (Cavia porcellus, UniProt A6XA80); assay type: tissue-based, Lung;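 also: enzyme inhibition assay of leukotriene C4 synthase, using LTA4 as the substrate; in other assays of this panel Not Active means under 50% inhibition at 10 µM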
T4 sequence (A6XA80 whole entry): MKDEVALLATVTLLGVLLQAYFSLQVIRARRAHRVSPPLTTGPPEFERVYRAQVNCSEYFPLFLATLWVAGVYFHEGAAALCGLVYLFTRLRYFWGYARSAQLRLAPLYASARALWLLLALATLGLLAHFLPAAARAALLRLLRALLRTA

[2] = target: T5, Muscarinic acetylcholine receptor M2 (Homo sapiens, UniProt P08172); assay type: cell membranes, CHO-K1, Membrane; conditions: cho-k1; also: in other assays of this panel Not Active means under 50% inhibition at 10 µM
T5 sequence (P08172 whole entry): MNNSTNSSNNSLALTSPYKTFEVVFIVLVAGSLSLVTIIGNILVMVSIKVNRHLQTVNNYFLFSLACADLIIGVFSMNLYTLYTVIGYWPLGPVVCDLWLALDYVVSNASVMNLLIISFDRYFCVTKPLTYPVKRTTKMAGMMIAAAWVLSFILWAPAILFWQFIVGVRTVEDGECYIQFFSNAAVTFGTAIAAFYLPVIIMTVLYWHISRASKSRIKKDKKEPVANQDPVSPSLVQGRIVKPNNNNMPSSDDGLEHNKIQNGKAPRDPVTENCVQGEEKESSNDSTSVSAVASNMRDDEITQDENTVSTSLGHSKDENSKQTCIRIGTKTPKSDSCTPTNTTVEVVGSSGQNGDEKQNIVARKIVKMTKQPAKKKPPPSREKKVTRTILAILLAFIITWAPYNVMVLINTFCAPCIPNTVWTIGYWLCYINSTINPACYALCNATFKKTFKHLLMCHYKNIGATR

[3] = DRUGMATRIX: Nicotinic Acetylcholine radioligand binding (ligand: [125I] Epibatidine); assay type: cell membranes, Membrane; conditions: imr-32; Not Active = under 50% inhibition at 10 µM
[4] = target: 5-hydroxytryptamine receptor 1B (Rattus norvegicus, UniProt P28564); assay type: cell membranes, Wistar, Cerebral cortex, Membrane; also: in other assays of this panel Not Active means under 50% inhibition at 10 µM
5-hydroxytryptamine receptor 1B, sequence (P28564 whole entry): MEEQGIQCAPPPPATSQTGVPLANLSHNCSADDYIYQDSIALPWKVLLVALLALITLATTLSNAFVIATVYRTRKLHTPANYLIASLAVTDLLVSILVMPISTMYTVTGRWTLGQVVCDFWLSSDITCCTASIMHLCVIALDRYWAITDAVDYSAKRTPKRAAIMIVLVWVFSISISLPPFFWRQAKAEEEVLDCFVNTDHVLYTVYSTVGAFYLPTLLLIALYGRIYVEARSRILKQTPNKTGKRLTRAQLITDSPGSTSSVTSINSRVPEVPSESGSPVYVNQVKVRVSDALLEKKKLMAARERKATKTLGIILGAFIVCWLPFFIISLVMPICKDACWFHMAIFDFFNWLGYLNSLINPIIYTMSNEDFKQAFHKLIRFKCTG

Cytochrome P450 2C19 = Cytochrome P450 2C19 (Homo sapiens, UniProt P33261); conditions: bti-tn-5b1-4; also: in other assays of this panel Not Active means under 50% inhibition at 10 µM
Cytochrome P450 2C19, sequence (P33261 whole entry): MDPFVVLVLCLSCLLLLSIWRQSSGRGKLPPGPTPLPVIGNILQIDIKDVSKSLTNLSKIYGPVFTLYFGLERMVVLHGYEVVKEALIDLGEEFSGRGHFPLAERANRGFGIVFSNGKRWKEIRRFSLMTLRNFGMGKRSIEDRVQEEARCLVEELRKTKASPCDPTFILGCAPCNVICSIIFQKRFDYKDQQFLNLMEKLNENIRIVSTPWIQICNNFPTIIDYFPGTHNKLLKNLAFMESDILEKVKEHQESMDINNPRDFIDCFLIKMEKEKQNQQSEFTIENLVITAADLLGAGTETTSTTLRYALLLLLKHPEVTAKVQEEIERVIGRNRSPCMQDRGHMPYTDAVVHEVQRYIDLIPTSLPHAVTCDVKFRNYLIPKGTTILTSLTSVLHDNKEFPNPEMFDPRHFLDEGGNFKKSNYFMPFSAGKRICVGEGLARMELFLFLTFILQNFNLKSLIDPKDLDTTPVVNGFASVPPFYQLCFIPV

SMILES	IC50 (B2 bradykinin receptor)	IC50 (Calcitonin receptor)	IC50 [1]	IC50 (Leukotriene C4 synthase)	IC50 [2]	IC50 [3]	Ki [3]	IC50 [4]	IC50 (Cytochrome P450 2C19)	Ki (Cytochrome P450 2C19)	pIC50 ([4]; read-out: IC50)	pKi ([4]; read-out: Ki)
C=C(CC)C(=O)c1ccc(OCC(=O)O)c(Cl)c1Cl [ETHACRYNIC ACID]	Not Active	Not Active	Not Active	Not Active	Not Active	Not Active	Not Active	Not Active	Not Active	Not Active		
CC(C(=O)O)c1ccc(-c2ccccc2)c(F)c1 (centres undefined) [FLURBIPROFEN]	Not Active	Not Active	Not Active	Not Active	Not Active	Not Active	Not Active	Not Active	Not Active	Not Active		
COc1ccccc1OCC(O)COC(N)=O (centres undefined) [METHOCARBAMOL]	Not Active	Not Active	Not Active	Not Active	Not Active	Not Active	Not Active	Not Active	Not Active	Not Active		
CC(C(=O)O)c1ccc(CC2CCCC2=O)cc1 (centres undefined) [LOXOPROFEN]	Not Active	Not Active	Not Active	Not Active	Not Active	Not Active	Not Active	Not Active	Not Active	Not Active		
CCCCC1C(=O)N(c2ccccc2)N(c2ccccc2)C1=O [PHENYLBUTAZONE]	Not Active	Not Active	Not Active	Not Active	Not Active	Not Active	Not Active	Not Active	Not Active	Not Active		
COc1ccccc1OCC(O)CO (centres undefined) [GUAIFENESIN]	Not Active	Not Active	Not Active	Not Active	Not Active	Not Active	Not Active	Not Active				
Cc1cn[nH]c1 [FOMEPIZOLE]	Not Active	Not Active	Not Active	Not Active	Not Active	Not Active	Not Active	Not Active				
CN1C[C@H](C(=O)N[C@]2(C)O[C@@]3(O)[C@@H]4CCCN4C(=O)[C@H](Cc4ccccc4)N3C2=O)C[C@@H]2c3cccc4[nH]cc(c34)C[C@H]21 [DIHYDROERGOTAMINE]	Not Active	Not Active	Not Active	Not Active	Not Active	Not Active	Not Active				9.07	9.42
CNC(=C[N+](=O)[O-])NCCSCc1csc(CN(C)C)n1 [NIZATIDINE]	Not Active	Not Active	Not Active	Not Active	Not Active	Not Active	Not Active	Not Active				
CCC[C@@H]1C[C@@H](C(=O)N[C@@H]([C@H]2O[C@H](SC)[C@H](O)[C@@H](O)[C@H]2O)[C@H](C)Cl)N(C)C1 [CLINDAMYCIN]	Not Active	Not Active	Not Active	Not Active	Not Active	Not Active	Not Active	Not Active				
C/C=C\c1ccc(O)c(OC)c1 [ISOEUGENOL]	Not Active	Not Active	Not Active	Not Active	Not Active	Not Active	Not Active	Not Active				
